Experimental data taken from ChEMBL document CHEMBL3758083, “Design and discovery of 4-anilinoquinazoline-acylamino derivatives as EGFR and VEGFR-2 dual TK inhibitors” (Eur J Med Chem, 2016).

Experiments:
[1] = biological target: Vascular endothelial growth factor receptor 2 (Homo sapiens, UniProt P35968); assay: Inhibition of human VEGFR-2 preincubated for 10 mins followed by addition of FAM-labeled peptide and incubated for 10 mins by Caliper motility shift assay
[2] = biological target: Epidermal growth factor receptor (Homo sapiens, UniProt P00533); assay: Inhibition of human EGFR preincubated for 10 mins followed by addition of FAM-labeled peptide and incubated for 10 mins by Caliper motility shift assay
HT-29 = assay: Antiproliferative activity against human HT-29 cells after 48 hrs by MTT assay; type: functional, cell-based; conditions: HT-29, 48 h
MCF7 = assay: Antiproliferative activity against human MCF7 cells after 48 hrs by MTT assay; type: functional, cell-based; conditions: MCF7, 48 h
NCI-H460 = assay: Antiproliferative activity against human NCI-H460 cells after 48 hrs by MTT assay; type: functional, cell-based; conditions: NCI-H460, 48 h

Sequence of Epidermal growth factor receptor (P00533 whole entry): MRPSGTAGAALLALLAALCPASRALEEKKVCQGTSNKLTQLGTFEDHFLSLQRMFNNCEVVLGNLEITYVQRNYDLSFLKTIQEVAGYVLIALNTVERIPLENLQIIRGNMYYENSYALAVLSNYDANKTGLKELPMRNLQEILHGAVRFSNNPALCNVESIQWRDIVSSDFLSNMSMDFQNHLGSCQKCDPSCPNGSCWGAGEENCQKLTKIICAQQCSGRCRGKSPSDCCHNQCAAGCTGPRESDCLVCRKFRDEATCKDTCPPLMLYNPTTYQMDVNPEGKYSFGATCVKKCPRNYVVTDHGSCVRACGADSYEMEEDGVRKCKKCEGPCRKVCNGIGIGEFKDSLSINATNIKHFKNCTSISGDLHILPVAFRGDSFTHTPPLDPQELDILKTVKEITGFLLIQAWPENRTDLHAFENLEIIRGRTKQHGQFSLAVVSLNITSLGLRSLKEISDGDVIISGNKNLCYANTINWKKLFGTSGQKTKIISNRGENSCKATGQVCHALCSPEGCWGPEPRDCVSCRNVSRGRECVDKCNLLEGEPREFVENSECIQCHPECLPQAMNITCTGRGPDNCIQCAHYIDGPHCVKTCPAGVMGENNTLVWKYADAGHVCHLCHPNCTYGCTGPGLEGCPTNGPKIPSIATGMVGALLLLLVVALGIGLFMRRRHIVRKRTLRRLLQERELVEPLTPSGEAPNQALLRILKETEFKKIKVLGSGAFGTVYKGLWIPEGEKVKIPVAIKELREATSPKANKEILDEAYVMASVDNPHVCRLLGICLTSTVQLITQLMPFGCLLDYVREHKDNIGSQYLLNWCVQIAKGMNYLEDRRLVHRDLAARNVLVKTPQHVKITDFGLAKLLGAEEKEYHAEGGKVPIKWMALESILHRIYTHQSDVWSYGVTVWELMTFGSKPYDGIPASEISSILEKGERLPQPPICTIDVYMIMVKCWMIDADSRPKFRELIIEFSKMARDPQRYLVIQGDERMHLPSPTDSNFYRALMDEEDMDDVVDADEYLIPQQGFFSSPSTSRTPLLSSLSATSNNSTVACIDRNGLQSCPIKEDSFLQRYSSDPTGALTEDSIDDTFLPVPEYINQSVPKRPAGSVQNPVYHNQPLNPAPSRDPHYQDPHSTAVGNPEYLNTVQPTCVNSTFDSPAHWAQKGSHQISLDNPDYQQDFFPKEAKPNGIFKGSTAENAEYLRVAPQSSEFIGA
Sequence of Vascular endothelial growth factor receptor 2 (P35968 whole entry): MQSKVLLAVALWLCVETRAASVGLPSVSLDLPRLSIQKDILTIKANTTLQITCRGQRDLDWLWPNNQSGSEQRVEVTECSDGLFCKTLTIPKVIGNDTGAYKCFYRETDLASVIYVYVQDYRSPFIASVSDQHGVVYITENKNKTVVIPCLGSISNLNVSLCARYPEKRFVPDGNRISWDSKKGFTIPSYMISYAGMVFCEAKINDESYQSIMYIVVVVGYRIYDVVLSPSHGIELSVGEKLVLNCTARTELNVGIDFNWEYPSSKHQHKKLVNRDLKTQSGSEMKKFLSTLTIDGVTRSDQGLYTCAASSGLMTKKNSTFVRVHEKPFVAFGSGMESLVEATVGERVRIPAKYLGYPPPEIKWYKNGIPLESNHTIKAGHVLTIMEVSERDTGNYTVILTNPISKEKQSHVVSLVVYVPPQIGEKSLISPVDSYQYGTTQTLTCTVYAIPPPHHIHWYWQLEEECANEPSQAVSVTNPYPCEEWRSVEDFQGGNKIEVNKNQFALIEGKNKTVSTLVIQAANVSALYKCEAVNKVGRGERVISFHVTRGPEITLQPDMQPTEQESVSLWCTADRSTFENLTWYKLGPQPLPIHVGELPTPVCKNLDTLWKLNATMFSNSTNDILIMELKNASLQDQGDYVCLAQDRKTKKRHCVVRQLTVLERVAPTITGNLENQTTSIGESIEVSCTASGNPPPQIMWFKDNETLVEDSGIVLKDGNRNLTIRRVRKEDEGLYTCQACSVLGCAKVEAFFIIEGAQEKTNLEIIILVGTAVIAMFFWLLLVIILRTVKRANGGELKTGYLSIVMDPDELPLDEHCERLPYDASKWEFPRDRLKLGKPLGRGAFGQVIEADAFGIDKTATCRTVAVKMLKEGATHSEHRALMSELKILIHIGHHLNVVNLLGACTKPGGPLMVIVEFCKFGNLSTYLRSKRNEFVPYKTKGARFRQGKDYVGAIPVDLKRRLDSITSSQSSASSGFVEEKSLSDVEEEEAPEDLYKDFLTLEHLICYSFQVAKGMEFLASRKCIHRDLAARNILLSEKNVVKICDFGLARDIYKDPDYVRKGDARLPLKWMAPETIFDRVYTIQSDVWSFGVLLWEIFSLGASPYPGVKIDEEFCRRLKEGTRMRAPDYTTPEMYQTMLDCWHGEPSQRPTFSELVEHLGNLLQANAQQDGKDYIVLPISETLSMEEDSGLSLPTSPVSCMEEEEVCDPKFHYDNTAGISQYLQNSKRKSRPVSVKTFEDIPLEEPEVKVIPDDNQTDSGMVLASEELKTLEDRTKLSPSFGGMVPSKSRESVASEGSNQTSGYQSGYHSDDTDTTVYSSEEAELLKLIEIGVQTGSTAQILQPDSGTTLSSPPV

Row | SMILES | IC50 [1] | IC50 [2] | IC50 (HT-29) | IC50 (MCF7) | IC50 (NCI-H460)
1 | COc1cc2c(Nc3ccc(NC(=O)c4ccc(C)cc4)cc3)ncnc2cc1OCCN1CCCCC1 | 2.48 µM | > 10 µM | 6.85 µM | – | –
2 | COc1cc2c(Nc3ccc(NC(=O)c4ccc(C)cc4)cc3)ncnc2cc1OCCCN1CCN(C)CC1 | 0.87 µM | 0.69 µM | 17.1 µM | 24.9 µM | 11.9 µM
3 | COc1cc2c(Nc3ccc(NC(=O)c4cccc(Cl)c4)cc3)ncnc2cc1OCCCN1CCN(C)CC1 | 1.81 µM | 0.15 µM | 5.27 µM | 4.41 µM | 12 µM
4 | COc1cc2c(Nc3ccc(NC(=O)c4ccc(Cl)cc4)cc3)ncnc2cc1OCCN1CCCCC1 | 4.19 µM | > 10 µM | 5.12 µM | 0.1 µM | 16 µM
5 | COc1cc2c(Nc3ccc(NC(=O)c4ccc(C)cc4)cc3)ncnc2cc1OCCCN1CCOCC1 | 2 µM | 0.76 µM | 89.1 µM | 37.6 µM | –
6 | COc1cc2c(Nc3ccc(NC(=O)c4ccc(C)cc4)cc3)ncnc2cc1OCc1ccccc1 | > 10 µM | > 10 µM | > 100 µM | > 100 µM | 46.1 µM
7 | COc1cc2c(Nc3ccc(NC(=O)c4cccc(Cl)c4)cc3)ncnc2cc1OCCCN1CCOCC1 | 2.99 µM | 0.23 µM | 21.3 µM | 7.8 µM | –
8 | COc1cc2c(Nc3ccc(NC(=O)c4ccccc4)cc3)ncnc2cc1OCCN1CCCCC1 | 4.72 µM | 4.61 µM | 26.1 µM | 36 µM | 30 µM
9 | COc1cc2c(Nc3ccc(NC(=O)c4ccccc4)cc3)ncnc2cc1OCc1ccccc1 | > 10 µM | > 10 µM | 7.37 µM | > 100 µM | 62.4 µM
10 | COc1ccc(C(=O)Nc2ccc(Nc3ncnc4cc(OCCCN5CCN(C)CC5)c(OC)cc34)cc2)cc1 | 2.02 µM | 1.11 µM | 22.1 µM | 24.6 µM | 9.49 µM
11 | COc1cc2c(Nc3ccc(NC(=O)c4ccc(Cl)cc4)cc3)ncnc2cc1OCCCN1CCN(C)CC1 | 1.86 µM | 1.33 µM | 5.54 µM | 53.2 µM | 26 µM

Other lines, results leading:

Row | IC50 [1] | IC50 [2] | IC50 (HT-29) | IC50 (MCF7) | IC50 (NCI-H460) | SMILES
12 | > 10 µM | > 10 µM | > 100 µM | 56.4 µM | 21.1 µM | COc1cc2c(Nc3ccc(NC(=O)c4ccc(Cl)cc4)cc3)ncnc2cc1OCc1ccccc1
13 | 0.56 µM | – | 31.3 µM | 39 µM | 27.2 µM | COc1cc2c(Nc3ccc(NC(=O)c4ccccc4)cc3)ncnc2cc1OCCCN1CCN(C)CC1
14 | 1.71 µM | 0.02 µM | 23.2 µM | 15.4 µM | 36.2 µM | COc1cc2c(Nc3ccc(NC(=O)c4ccccc4Cl)cc3)ncnc2cc1OCCCN1CCN(C)CC1
15 | > 10 µM | 0.73 µM | > 100 µM | 78.2 µM | 28.2 µM | COc1cc2c(Nc3ccc(NC(=O)c4ccccc4Cl)cc3)ncnc2cc1OCc1ccccc1
16 | > 10 µM | > 10 µM | – | > 100 µM | 12.5 µM | COc1cc2c(Nc3ccc(NC(=O)c4cccc(Cl)c4)cc3)ncnc2cc1OCc1ccccc1
17 | 2.62 µM | 1.35 µM | 9.39 µM | 40.2 µM | 8 µM | COc1cc2c(Nc3ccc(NC(=O)c4ccc(Cl)cc4)cc3)ncnc2cc1OCCCN1CCOCC1
18 | 1.99 µM | 0.3 µM | 7.94 µM | 4.34 µM | – | COc1cc2c(Nc3ccc(NC(=O)c4cccc(Cl)c4)cc3)ncnc2cc1OCCN1CCCCC1
19 | > 10 µM | > 10 µM | > 100 µM | – | 16.1 µM | COc1ccc(C(=O)Nc2ccc(Nc3ncnc4cc(OCc5ccccc5)c(OC)cc34)cc2)cc1
